system: RAW264.7; assay: Antiinflammatory activity against mouse RAW264.7 cells assessed as inhibition of LPS-induced NO production preincubated for 3 hrs followed by LPS stimulation and measured after 24 hrs by Griess reagent based assay; assay type: functional, cell-based

Row | Compound | IC50 [µM]
1 | C/C1=C\[C@@H]2[C@H](CC[C@]3(CO3)[C@H](OC(=O)CCC(=O)NCCOc3no[n+]([O-])c3S(=O)(=O)c3ccccc3)[C@H]3[C@@H](O)[C@@H](C)C[C@]3(O)C1=O)C2(C)C | 1.43
2 | C=C1CC[C@H]2[C@@H](/C=C(\C)C(=O)[C@@]3(O)C[C@H](C)[C@H](O)[C@@H]3[C@H]1OC(=O)c1cn(-c3ccccc3)nc1-c1ccc(C)cc1)C2(C)C | > 20
3 | C=C1CC[C@H]2[C@@H](/C=C(\C)C(=O)[C@@]3(OC(C)=O)C[C@H](C)[C@H](OC(=O)c4ccccc4)[C@@H]3[C@H]1OC(C)=O)C2(C)C | 8.06
4 | C/C1=C\[C@@H]2[C@H](CC[C@]3(CO3)[C@H](OC(=O)CCC(=O)OCc3ccc(COc4no[n+]([O-])c4S(=O)(=O)c4ccccc4)cc3)[C@H]3[C@@H](O)[C@@H](C)C[C@]3(O)C1=O)C2(C)C | 2.61
5 | CC(=O)Nc1ncc(C(=O)O[C@@H]2[C@H]3[C@@H](O)[C@@H](C)C[C@]3(O)C(=O)/C(C)=C/[C@@H]3[C@H](CC[C@]24CO4)C3(C)C)s1 | > 20
6 | CCn1cc(C(=O)O[C@@H]2[C@H]3[C@@H](O)[C@@H](C)C[C@]3(O)C(=O)/C(C)=C/[C@@H]3[C@H](CC[C@]24CO4)C3(C)C)c(-c2ccc(N(C)C)cc2)n1 | > 20
7 | C=C1CC[C@H]2[C@@H](/C=C(\C)C(=O)[C@@]3(O)C[C@H](C)[C@H](O)[C@@H]3[C@H]1OC(=O)c1cnc(NC(=O)/C=C/c3ccccc3)s1)C2(C)C | > 20
8 | C/C1=C\[C@@H]2[C@H](CC[C@]3(CO3)[C@H](OC(=O)CCC(=O)OCCCCOc3no[n+]([O-])c3S(=O)(=O)c3ccccc3)[C@H]3[C@@H](O)[C@@H](C)C[C@]3(O)C1=O)C2(C)C | 1.82
9 | C/C1=C\[C@@H]2[C@H](CC[C@]3(CO3)[C@H](OC(=O)c3cnc(NC(=O)/C=C/c4ccccc4)s3)[C@H]3[C@@H](O)[C@@H](C)C[C@]3(O)C1=O)C2(C)C | > 20
10 | C=C1CC[C@H]2[C@@H](/C=C(\C)C(=O)[C@@]3(O)C[C@H](C)[C@H](O)[C@@H]3[C@H]1OC(=O)c1cn(-c3ccccc3)nc1-c1ccc(F)cc1)C2(C)C | 10.8
11 | C=C1CC[C@H]2[C@@H](/C=C(\C)C(=O)[C@@]3(O)C[C@H](C)[C@H](O)[C@@H]3[C@H]1OC(=O)CCC(=O)OCc1c(-c3ccccc3)no[n+]1[O-])C2(C)C | 5.47
12 | C=C1CC[C@H]2[C@@H](/C=C(\C)C(=O)[C@@]3(O)C[C@H](C)[C@H](O)[C@@H]3[C@H]1OC(=O)c1cn(CC)nc1-c1ccc(Cl)cc1)C2(C)C | 5.84
13 | CCn1cc(C(=O)O[C@@H]2[C@H]3[C@@H](O)[C@@H](C)C[C@]3(O)C(=O)/C(C)=C/[C@@H]3[C@H](CC[C@]24CO4)C3(C)C)c(-c2ccc(F)cc2)n1 | 13.3
14 | C=C1CC[C@H]2[C@@H](/C=C(\C)C(=O)[C@@]3(O)C[C@H](C)[C@H](O)[C@@H]3[C@H]1OC(=O)c1cn(CC)nc1-c1ccc(C)cc1)C2(C)C | 7.73
15 | C/C1=C\[C@@H]2[C@H](CC[C@]3(CO3)[C@H](OC(=O)CCC(=O)OCCOCCOc3no[n+]([O-])c3S(=O)(=O)c3ccccc3)[C@H]3[C@@H](O)[C@@H](C)C[C@]3(O)C1=O)C2(C)C | 3.38
16 | C/C1=C\[C@@H]2[C@H](CC[C@]3(CO3)[C@H](OC(=O)c3cnc(NC(=O)c4ccccc4)s3)[C@H]3[C@@H](O)[C@@H](C)C[C@]3(O)C1=O)C2(C)C | 10.9
17 | CCn1cc(C(=O)O[C@@H]2[C@H]3[C@@H](O)[C@@H](C)C[C@]3(O)C(=O)/C(C)=C/[C@@H]3[C@H](CC[C@]24CO4)C3(C)C)c(-c2ccc(C(F)(F)F)cc2)n1 | 10.6
18 | C=C1CC[C@H]2[C@@H](/C=C(\C)C(=O)[C@@]3(O)C[C@H](C)[C@H](O)[C@@H]3[C@H]1OC(=O)c1cn(-c3ccccc3)nc1-c1ccc(OC)cc1)C2(C)C | > 20

— ChEMBL document CHEMBL5154706, “Synthesis of lathyrane diterpenoid nitrogen-containing heterocyclic derivatives and evaluation of their anti-inflammatory activities” (Bioorg Med Chem, 2022)
